# Test results taken from patent US9394520B2, “Expansion of hematopoietic stem cells” (University of Rochester, priority 2006, dated 2016).
# Columns and labels:
# Jagged1 = Jagged1 mRNA by real time RT-PCR in UMR106 cells; assay type: cell-based; settings: UMR106 cells, PGE2 10^−7 M, at 2 hours, corrected for beta-actin
# Method: UMR 106 cells were serum starved for 24 hours and then treated with a single dose of vehicle (controls) or PGE2 at a concentration of 10^-7 M. RNA was collected from both control and treated samples to assess the fold change in Jagged1 mRNA by real time RT-PCR analysis corrected for by beta-actin. FIG. 1B is a Western blot showing total protein that was collected from both control and treated samples exposed to Jagged1 antibody, C20. Positive control (+ctr) was provided by HS27a cells, a human stromal cell line with high levels of Jagged1 protein, while HS5 cells from a human stromal cell line with minimal Jagged1 levels were used as a negative control. […] UMR106 cells were serum starved for 24 hours. They were pre-treated with H89 for 30 minutes followed by a single dose of PGE2 at 10^-7 M or vehicle. RNA was collected from both control and treated samples to assess the fold change in Jagged1 RNA by real time RT-PCR analysis corrected for by β-actin. […] UMR106 cells were serum starved for 24 hours. […] Total protein was collected from both PGE2 and vehicle treated samples for Western blot analysis with Jagged1 antibody C-20. UMR106 cells were grown in DMEM supplemented with 1.5 g/l sodium bicarbonate, 10% FBS, penicillin (100 U/ml), streptomycin (100 U/ml). After three days of growth the cells were 80% confluent and media was replaced with serum-free media. After 24 hr in serum-free media, PGE2 was added in noted concentrations. UMR 106 cells were treated with the Protein Kinase A (PKA) inhibitors H89 (0.5 hr prior to PGE2 treatment), and myristoylated PKI (0.5 hr prior to PGE2 treatment). […] At the designated times, total RNA and protein were harvested. Total RNA was extracted and analyzed by real time RT-PCR, normalizing for β-actin expression and t=0. Total protein was analyzed by Western blots performed using the […] system (Invitrogen, Carlsbad, Calif.). Blots were probed with Jag1 c-20 antibody (Santa Cruz Biotechnology, Inc., Santa Cruz, Calif.), and the loading control was B-actin.
# HES1 = experiment: Notch target gene HES1 expression by real time RT-PCR; assay type: cell-based; settings: UMR 206 cells, PGE2 treatment, starting at 24 hours
# Method: FIG. 3 is a graph showing that PGE2 treatment in UMR 206 cells increased expression of the Notch target gene HES1 as determined by real time RT-PCR analysis starting at 24 hours.
# At the designated times, total RNA and protein were harvested. Total RNA was extracted and analyzed by real time RT-PCR, normalizing for β-actin expression and t=0. Total protein was analyzed by Western blots performed using the XCELL SURELOCK™ system (Invitrogen, Carlsbad, Calif.). Blots were probed with Jag1 c-20 antibody (Santa Cruz Biotechnology, Inc., Santa Cruz, Calif.), and the loading control was B-actin.
# bone = experiment: Bone analysis (microCT, histology) of PGE2-treated mice; assay type: in vivo
# Method: FIG. 6A is a graph showing quantification of bone volume performed by microCT analysis of femora from mice treated with PGE2 (6 mg/kg i.p. daily for 16 days (n=8)).
# Eight to ten week old FVB/N male mice were injected intraperitoneally once or twice daily for 16 days with either PGE2 (6 mg/kg body weight) or vehicle. Left hind limbs were harvested, fixed, decalcified, and processed. Right hindlimbs were harvested at the same time.
# Adult C57Bl/6 male mice were treated with PGE2 for 16 days.
# [1] = parameters: species or system mice; settings: mouse, in vivo
# Source text: FIG. 8 is a graph showing that intermediate progenitors of hematopoietic stem cells are not increased by PGE2 treatment. Therefore, PGE2 specifically increases HSCs. The bone marrow mononuclear cells from mice treated with vehicle and PGE2 using colony forming unit-cell (CF-C) activity in vitro. […] Peripheral white blood cell and hematocrit levels were not changed in PGE2 vs. vehicle treated mice at 16 days (WBC counts: vehicle averaged 5.75±0.20×10^3/μl; PGE2 averaged 4.72±0.61×10^3/μl) (Hematocrit: vehicle averaged 42±1%; PGE2 averaged 43±2%) (n=6 for each treatment group).
# FIG. 8 is a graph showing that intermediate progenitors of hematopoietic stem cells are not increased by PGE2 treatment. Therefore, PGE2 specifically increases HSCs. The bone marrow mononuclear cells from mice were treated with vehicle and PGE2 to determine if there was an increase in intermediate progenitors in response to PGE2 using the colony forming unit-cell (CFU-C) assay. […] In addition, peripheral white blood cell and hematocrit levels were not changed in PGE2 vs. vehicle treated mice at 16 days (WBC counts: vehicle averaged 5.75±0.20×10^3/μl; PGE2 averaged 4.72±0.61×10^3/μl) (Hematocrit: vehicle averaged 42±1%; PGE2 averaged 43±2%) (n=6 for each treatment group).
# ST-HSC = experiment: Competitive repopulation in lethally irradiated recipients; assay type: in vivo, mice; settings: donor CD45.2 to competitor CD45.1 1:2, effect limited to short-term (up to 6 weeks)
# Method: FIGS. 11A, 11B and 11C are graphs showing engraftment data from peripheral blood from competitive repopulation analysis from CD45.2+c57bl/6 mice treated daily with PGE2 (6 mg/kg i.p. twice daily) (n=8 mice per treatment group, n=10 recipient mice per group, 2 experiments).
# This effect was limited to the short-term (up to 6 weeks) (FIGS. 11A, 11B and 11C), illustrating specific ST-HSC expansion. This is a unique in vivo model of selective ST-HSC increase. This effect is best illustrated by the short lived CD11b+myeloid subset (FIGS. 11A, 11B and 11C).
# ST-HSC / LT-HSC activity = experiment: Colony Forming Unit-Spleen (CFU-S) assay; assay type: in vivo, mice
# Source text: FIG. 13A show CFU-S images of selected spleens after fixation. FIGS. 13B and 13C are graphs showing quantification of colonies per spleen at days 8 (FIG. 13B) and 10 (FIG. 13C) after transplantation.
# ST vs LT-HSC activity can also be quantified by the in vivo clonogenic Colony Forming Unit-Spleen (CFU-S) assay, where day 8 CFU-S is closely associated with ST-HSC, while day 10-12 CFU-S are associated with LT-HSC activity.
# [2] = tested on: lethally irradiated recipient mice; experiment: Survival of lethally irradiated recipients of suboptimal BMMC from treated donors; assay type: in vivo
# Source text: FIGS. 14A and 14B are graphs showing survival analysis by the method of Kaplan-Meyer in lethally irradiated recipients of suboptimal BMMC (1.5×10^5 donor BMMC (A) and 0.75×10^5 donor BMMC (B)) from vehicle or PGE2-treated donors.
# Moreover, since ST-HSC confer radioprotection, PGE2-dependent ST-HSC expansion would be expected to improve survival of lethally irradiated recipients receiving limiting numbers of BMMC from PGE2 vs vehicle-treated mice. To test this hypothesis, adult C57Bl/6 donor mice were treated with PGE2 or vehicle prior to bone marrow harvest. Recipient mice received myeloablative doses of radiation and suboptimal BMMC numbers (FIGS. 14A and 14B).
structure (smiles),measurement,setting,value
"CCCCC[C@H](O)/C=C/[C@H]1[C@H](O)CC(=O)[C@@H]1C/C=C\CCCC(=O)O [PGE2, Prostaglandin E2]",Jagged1 mRNA increase compared to vehicle,Jagged1,up to 5 fold
same,expression of the Notch target gene HES1,HES1,increased
same,"bone anabolic effect in long bones, histologically or by micro-CT imaging","bone; adult C57Bl/6 male mice, 16 days",no evidence of a significant bone anabolic effect
same,bone volume by microCT analysis,"bone; adult FVB/N male mice, 6 mg/kg/day i.p., day 12",no significant increase
same,cortical width of the tibia,bone; in vivo treatment with PGE2,significantly increased
same,tibial metaphyseal trabecularization,bone; in vivo treatment with PGE2,increased
same,Hematocrit,[1],43±2%
same,peripheral platelets,[1],not changed
same,multilineage reconstitution by donor cells from treated mice,ST-HSC,superior multilineage reconstitution
same,CFU-Sd8,"ST-HSC / LT-HSC activity; day 8, BMMC from treated mice, n=4, p=0.0053","10.5 CFU-S per 60,000 BMMC"
same,CFU-Sd10,"ST-HSC / LT-HSC activity; day 10, BMMC from treated mice, n=6, p=0.4950","12.5 CFU-S per 60,000 BMMC"
same,survival 30 days after transplantation,"[2]; 75,000 donor cells from treated donors, p=0.0173",53%
same,survival 30 days after transplantation,"[2]; 150,000 donor cells from treated donors, p=0.0018",80%
